Laboratory results: ChEMBL document CHEMBL5131551, “Novel Bicyclic Dione Compounds as KRAS Inhibitors for Treating Cancer” (ACS Med Chem Lett, 2022)

Legend:
GTPase KRas [1] = target: T1, GTPase KRas (Homo sapiens, UniProt P01116, G12C); experiment: Inhibition of KRAS G12C mutant in human MIA PaCa-2 cells assessed as reduction in phosphorylated ERK level incubation for 2 to 4 hrs by HTRF assay; format: cell-based
GTPase KRas [2] = target: T1, GTPase KRas; experiment: Inhibition of BODIPY loaded KRAS G12C mutant (unknown origin) assessed as inhibition of GDP-GTP exchange rate preincubated for 2 hrs and measured after 2 hrs in presence of SOS1-GppNHp mixture by BODIPY fluorescence based PHERAstar plate reader analysis

T1 sequence (P01116 whole entry G12C): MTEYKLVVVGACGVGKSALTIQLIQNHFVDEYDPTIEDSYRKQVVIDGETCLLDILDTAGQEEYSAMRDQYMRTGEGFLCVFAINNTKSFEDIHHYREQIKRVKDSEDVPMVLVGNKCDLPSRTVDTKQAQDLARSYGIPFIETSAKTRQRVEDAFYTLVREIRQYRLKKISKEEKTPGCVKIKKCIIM

| SMILES | IC50 (GTPase KRas [1]) | IC50 (GTPase KRas [2]) |
| --- | --- | --- |
| C=CC(=O)N1CC(F)(Cn2c(=O)c(=O)n(-c3c(C)ccnc3C(C)C)c3nc(-c4c(F)ccc(F)c4O)c(Cl)cc32)C1 | ≤ 100 nM | ≤ 100 nM |
| C=CC(=O)N1CC(F)(Cn2c(=O)c(=O)n(-c3c(C)ccnc3C(C)C)c3nc(-c4ccccc4F)c(Cl)cc32)C1 | ≤ 100 nM | ≤ 100 nM |
| C=CC(=O)N1CC(F)(Cn2c(=O)c(=O)n(-c3c(C)ccnc3C(C)C)c3nc(-c4c(N)cccc4F)c(Cl)cc32)C1 | ≤ 100 nM | ≤ 100 nM |
| C=CC(=O)N1CC(F)(Cn2c(=O)c(=O)n(-c3c(C)ccnc3C(C)C)c3nc(-c4c(Cl)ccc5c4OCO5)c(Cl)cc32)C1 | ≤ 100 nM | ≤ 100 nM |
| C=CC(=O)N1CC(F)(Cn2c(=O)c(=O)n(-c3c(C)ccnc3C(C)C)c3nc(-c4cccc(Cl)c4Cl)c(Cl)cc32)C1 | ≤ 100 nM | ≤ 100 nM |
| C=CC(=O)N1CC(F)(Cn2c(=O)c(=O)n(-c3c(C(C)C)cccc3C(C)C)c3nc(-c4cc(O)cc5ccccc45)c(Cl)cc32)C1 | ≤ 100 nM | ≤ 100 nM |
